Earlier results in patent publication US20190209502A1, “COMBINATION GEL FOR SEXUALLY TRANSMITTED INFECTIONS” (EVOFEM, INC., priority 2016, published 2019).

Tested on: HIV
Conditions: compared with D or racemic lactic acid

C[C@H](O)C(=O)O [L form of lactic acid, L-(+)-lactic acid]
potency in inactivating HIV: more potent in inactivating HIV than D or racemic lactic acid
